# What was measured:
# [1] = molecular target: T1, STAT6 (Homo sapiens (Human), UniProt P42226); test: STAT6 degrader assay (HiBiT, HeLa LgBiT clone 4.14); format: cell-based; conditions: HeLa LgBiT clone 4.14, 4-24 h; geometric mean; given for compounds with >80% Emax; read-out: STAT6 degradation DC50
# How it was run: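 DC50 (nM) comes from luminescence of non-degraded STAT6 read 0.5 h after Nano-GLO addition, following 4-24 h compound exposure at 37° C. Cells were HeLa clone 4.14 expressing LgBiT with a CRISPR HiBiT tag on endogenous STAT6; 50 μM terfenadine set full degradation.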
# Target sequence in this assay (P42226 whole entry): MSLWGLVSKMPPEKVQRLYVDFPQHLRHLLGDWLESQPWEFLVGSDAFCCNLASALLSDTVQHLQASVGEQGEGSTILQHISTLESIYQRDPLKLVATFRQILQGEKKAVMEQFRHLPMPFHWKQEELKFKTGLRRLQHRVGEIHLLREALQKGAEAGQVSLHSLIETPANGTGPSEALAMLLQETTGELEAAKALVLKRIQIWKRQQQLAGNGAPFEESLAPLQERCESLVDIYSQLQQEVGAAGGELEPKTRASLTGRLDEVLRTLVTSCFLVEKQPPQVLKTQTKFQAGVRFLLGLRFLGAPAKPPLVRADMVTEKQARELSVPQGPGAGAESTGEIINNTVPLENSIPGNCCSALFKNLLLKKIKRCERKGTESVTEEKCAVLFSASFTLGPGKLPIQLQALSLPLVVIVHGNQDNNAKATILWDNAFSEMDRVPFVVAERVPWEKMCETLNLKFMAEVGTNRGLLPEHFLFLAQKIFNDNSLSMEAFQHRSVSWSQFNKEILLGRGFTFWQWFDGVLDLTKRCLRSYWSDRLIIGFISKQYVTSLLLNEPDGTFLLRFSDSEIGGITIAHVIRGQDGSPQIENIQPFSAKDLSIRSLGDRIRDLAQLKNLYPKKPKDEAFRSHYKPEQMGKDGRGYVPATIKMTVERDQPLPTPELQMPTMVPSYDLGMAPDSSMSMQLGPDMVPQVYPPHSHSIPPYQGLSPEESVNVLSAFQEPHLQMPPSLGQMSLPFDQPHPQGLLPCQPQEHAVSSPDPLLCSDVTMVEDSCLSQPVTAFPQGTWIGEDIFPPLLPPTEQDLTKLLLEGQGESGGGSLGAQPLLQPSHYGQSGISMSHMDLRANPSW
# [2] = molecular target: T1, STAT6; test: Surface plasmon resonance assay; format: binding; conditions: truncated human STAT6 aa122-658, 25° C.; read-out: STAT6 SPR Kd
# Protocol: Surface Plasmon Resonance Assay
# SPR was used to confirm and quantify binding of compounds to human STAT6. Biacore instruments from the 8K-series (Cytiva) were used, and measurements were performed at 25° C. Human STAT6 (truncated, aa122-658, with N-terminal His-tag, expressed in insect cells) was immobilized in the active flow cells on a CM5 chip using amine-coupling (default settings) at 10 μg/ml in 10 mM acetate buffer pH 5.5, at a contact time of 120-420 sec. and a flow rate of 10 μl/min. Reference flow cells were deactivated using blank immobilization. PBS-P+(Cytiva) supplemented with 2% DMSO was used as running buffer, and solvent correction was applied. Compounds were tested by multi-cycle kinetics injections using a contact time of 60 sec., dissociation time of up to 300 sec., and a flow rate of 30 μl/min.
# Solvent-corrected, reference-subtracted and blank-corrected data was processed and binding isotherms were fitted according to a single report point from each sensorgram (Standard: Late binding (5 sec. before injection end); alternative: Earlier report point according to binding profile). Data fitting was done both with unfixed Rmax and with Rmax fixed to the theoretical value* assuming 1:1 binding to allow processing of data from both weak and strong binders as well as to evaluate binding stoichiometry.
# Positive controls were run at the beginning, during, and at the end of the screen to evaluate surface activity. Generally surface activity was only affected to a minor degree, and no corrections were applied. • Equation for calculation of the theoretical Rmax (Theoretical Rmax=(MW Analyte/MW Ligand)×immobilization level).
# The sensorgrams for Examples 3e5, 3t4, and 3p1 are shown in FIG. 1 (where RU is plotted vs. time in seconds; dotted lines/points were excluded from the analysis due to effects from non-specific binding)).
# Target sequence in this assay (P42226 122-658): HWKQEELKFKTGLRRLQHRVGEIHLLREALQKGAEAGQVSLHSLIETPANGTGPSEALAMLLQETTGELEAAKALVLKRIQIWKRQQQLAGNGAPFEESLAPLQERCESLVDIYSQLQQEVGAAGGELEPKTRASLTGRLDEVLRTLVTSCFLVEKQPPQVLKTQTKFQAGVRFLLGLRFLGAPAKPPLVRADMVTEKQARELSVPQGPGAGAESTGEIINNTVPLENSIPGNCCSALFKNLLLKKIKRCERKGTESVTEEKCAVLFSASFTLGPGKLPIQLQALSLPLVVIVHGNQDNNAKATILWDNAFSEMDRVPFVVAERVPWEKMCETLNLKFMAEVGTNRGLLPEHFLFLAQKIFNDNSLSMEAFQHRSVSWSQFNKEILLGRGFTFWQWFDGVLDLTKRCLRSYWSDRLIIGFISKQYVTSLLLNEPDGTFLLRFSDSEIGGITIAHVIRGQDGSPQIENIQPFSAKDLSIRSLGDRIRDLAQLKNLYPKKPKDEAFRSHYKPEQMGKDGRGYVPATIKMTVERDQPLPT
# [3] = test system: eotaxin-3 release; test: Human whole blood eotaxin-3 assay (IL-4 stimulated); format: cell-based; conditions: human whole blood, IL-4 0.4 nM, 48 hours; geometric mean; given for compounds with >80% Emax; read-out: Eotaxin-3 EC50
# How it was run: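 Human whole blood was preincubated with compound for 120 min at 37 °C, then stimulated with recombinant human IL-4 (E. coli) at 0.4 nM final for 48 h. Inhibition of eotaxin-3 release gave EC50 values.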
Compound,DC50 [1] [nM],Kd [2] [nM],EC50 [3] [nM]
"Cn1c(CN2CCC(c3ccc(C(=O)N4CCC(CN5CCN(Cc6ccc7c(c6)n(C6CC6)c(=O)n7C6CCC(=O)NC6=O)CC5)CC4)cc3)CC2)cc2c(-c3ccc(N)nc3)ccnc21 (stereo not drawn) [Example 3e5, 3-(5-((4-((1-(4-(1-((4-(6-aminopyridin-3-yl)-1-methyl-1H-pyrrolo[2,3-b]pyridin-2-yl)methyl)piperidin-4-yl)benzoyl)piperidin-4-yl)methyl)piperazin-1-yl)methyl)-3-cyclopropyl-2-oxo-2,3-dihydro-1H-benzo[d]imidazol-1-yl)piperidine-2,6-dione]",5.4,104,–
"CNc1ccc(-c2ccnc3c2cc(CN2CCC(c4c(F)cc(C(=O)N5CCC(CN6CCN(Cc7ccc8c(c7)C7(CC7)C(=O)N8C7CCC(=O)NC7=O)C[C@@H]6C)CC5)cc4F)CC2)n3C)cn1 (stereo partly drawn) [Example 3h38, 3-(5′-(((S)-4-((1-(3,5-difluoro-4-(1-((1-methyl-4-(6-(methylamino)pyridin-3-yl)-1H-pyrrolo [2,3-b]pyridin-2-yl)methyl)piperidin-4-yl)benzoyl)piperidin-4-yl)methyl)-3-methylpiperazin-1-yl)methyl)-2′-oxospiro[cyclopropane-1,3′-indolin]-1′-yl)piperidine-2,6-dione]",1.7,–,7.1
"CNc1ccc(-c2ccnc3c2cc([C@H](C)N2CC=C(c4c(C)cc(C(=O)N5CCC(CN6CCN(Cc7ccc8c(c7)C7(CCC7)C(=O)N8C7CCC(=O)NC7=O)C[C@@H]6C)CC5)cc4F)CC2)n3C)cn1 (stereo partly drawn) [Example 3h47, 3-(5′-(((S)-4-((1-(3-fluoro-5-methyl-4-(1-((S)-1-(1-methyl-4-(6-(methylamino)pyridin-3-yl)-1H-pyrrolo[2,3-b]pyridin-2-yl)ethyl)-1,2,3,6-tetrahydropyridin-4-yl)benzoyl)piperidin-4-yl)methyl)-3-methylpiperazin-1-yl)methyl)-2′-oxospiro[cyclobutane-1,3′-indolin]-1′-yl)piperidine-2,6-dione]",7,–,8.8
"C[C@H]1CN(Cc2ccc3c(c2)C2(CCC2)C(=O)N3C2CCC(=O)NC2=O)CCN1CC1CCN(C(=O)c2ccc(C3CCN([C@@H](C)c4cc5c(-c6ccc(N)nc6)ccnc5n4C)CC3)cc2)CC1 (stereo partly drawn) [Example 3h48, 3-(5′-(((S)-4-((1-(4-(1-((S)-1-(4-(6-aminopyridin-3-yl)-1-methyl-1H-pyrrolo[2,3-b]pyridin-2-yl)ethyl)piperidin-4-yl)benzoyl)piperidin-4-yl)methyl)-3-methylpiperazin-1-yl)methyl)-2′-oxospiro-[cyclobutane-1,3′-indolin]-1′-yl)piperidine-2,6-dione]",3,–,13.2
"C[C@@H](c1cc2c(-c3ccc(N)nc3)ccnc2n1C)N1CCC(c2ccc(C(=O)N3CCC(CN4CCN(Cc5ccc6c(c5)oc(=O)n6C5CCC(=O)NC5=O)CC4)CC3)cc2)CC1 (stereo partly drawn) [Example 3n5, 3-(6-((4-((1-(4-(1-((S)-1-(4-(6-aminopyridin-3-yl)-1-methyl-1H-pyrrolo[2,3-b]pyridin-2-yl)ethyl)-piperidin-4-yl)benzoyl)piperidin-4-yl)methyl)piperazin-1-yl)methyl)-2-oxobenzo[d]oxazol-3 (2H)-yl)piperidine-2,6-dione]",2.7,–,6
"C[C@H]1CN(Cc2ccc3c(c2)oc(=O)n3C2CCC(=O)NC2=O)CCN1CC1CCN(C(=O)c2ccc(C3CCN([C@@H](C)c4cc5c(-c6ccc(N)nc6)ccnc5n4C)CC3)cc2)CC1 (stereo partly drawn) [Example 3n6, 3-(6-(((S)-4-((1-(4-(1-((S)-1-(4-(6-aminopyridin-3-yl)-1-methyl-1H-pyrrolo[2,3-b]pyridin-2-yl)ethyl)piperidin-4-yl)benzoyl)piperidin-4-yl)methyl)-3-methylpiperazin-1-yl)methyl)-2-oxobenzo[d]oxazol-3 (2H)-yl)piperidine-2,6-dione]",0.7,–,4
"CN(C(=O)c1ccc(C2CCN(Cc3cc4c(-c5ccc(N)nc5)ccnc4n3C)CC2)cc1)c1ccc(C2CCN(Cc3ccc4c(c3)n(C)c(=O)n4C3CCC(=O)NC3=O)CC2)cc1 (stereo not drawn) [Example 3p1, 4-(1-((4-(6-aminopyridin-3-yl)-1-methyl-1H-pyrrolo[2,3-b]pyridin-2-yl)methyl)piperidin-4-yl)-N-(4-(1-((1-(2,6-dioxopiperidin-3-yl)-3-methyl-2-oxo-2,3-dihydro-1H-benzo[d]imidazol-5-yl)methyl)-piperidin-4-yl)phenyl)-N-methylbenzamide]",0.1,11.4,1
"CN(C(=O)c1ccc(C2CCN(Cc3cc4c(-c5ccc(N)nc5)ccnc4n3C)CC2)cc1)c1ccc(C2CCN(Cc3ccc4c(c3)n(C)c(=O)n4C3CCC(=O)NC3=O)CC2(F)F)cc1 (stereo not drawn) [Example 3p2, 4-(1-((4-(6-aminopyridin-3-yl)-1-methyl-1H-pyrrolo[2,3-b]pyridin-2-yl)methyl)piperidin-4-yl)-N-(4-(1-((1-(2,6-dioxopiperidin-3-yl)-3-methyl-2-oxo-2,3-dihydro-1H-benzo[d]imidazol-5-yl)methyl)-3,3-difluoropiperidin-4-yl)phenyl)-N-methylbenzamide]",0.8,–,17
"C[C@H]1CN(Cc2ccc3c(c2)C(C)(C)C(=O)N3C2CCC(=O)NC2=O)CCN1CC1CCN(C(=O)c2ccc(C3CCN([C@@H](C)c4cc5c(-c6ccc(N)nc6)ccnc5n4C)CC3)cc2)CC1 (stereo partly drawn) [Example 3r2, 3-(5-(((S)-4-((1-(4-(1-((S)-1-(4-(6-aminopyridin-3-yl)-1-methyl-1H-pyrrolo[2,3-b]pyridin-2-yl)ethyl)piperidin-4-yl)benzoyl)piperidin-4-yl)methyl)-3-methylpiperazin-1-yl)methyl)-3,3-dimethyl-2-oxoindolin-1-yl)piperidine-2,6-dione]",4.1,–,14.7
"Cn1c(CN2CCC(c3ccc(-c4nnc5ccc(N6CCC(CN7CCN(Cc8ccc9c(c8)n(C)c(=O)n9C8CCC(=O)NC8=O)CC7)CC6)nn45)cc3)CC2)cc2c(-c3ccc(N)nc3)ccnc21 (stereo not drawn) [Example 3t4, 3-(5-((4-((1-(3-(4-(1-((4-(6-aminopyridin-3-yl)-1-methyl-1H-pyrrolo[2,3-b]pyridin-2-yl)methyl)-piperidin-4-yl)phenyl)-[1,2,4]triazolo[4,3-b]pyridazin-6-yl)piperidin-4-yl)methyl)piperazin-1-yl)methyl)-3-methyl-2-oxo-2,3-dihydro-1H-benzo[d]imidazol-1-yl)piperidine-2,6-dione]",0.1,37.8,–

# — patent US20250325677A1, “STAT6 DEGRADERS” (Gilead Sciences, Inc., priority 2024, published 2025)
